According to patent publication US20240092835A1, “NOVEL PEPTIDES CAPABLE OF ALTERING NK CELL ACTIVITY” (Massachusetts Institute of Technology, priority 2022, published 2024):

What was measured:
[1] = tested on: NKG2A+/NKG2C− NK cells; experiment: NK cell activation markers in NKG2A+/NKG2C- NK cells incubated with peptide and K562 expressing HLA-E (inhibition); format: cell-based, human; details: for percentage of CCL3+ NK cells / percentage of CD107a+ NK cells / percentage of IFNG+ NK cells / percentage of TNF+ NK cells: NKG2A+/NKG2C- NK cells, K562/HLA-E
Procedure, shortened: (§1)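 Percent of NK cells positive for cell-surface markers was measured after exposure to K562 targets expressing HLA-E and loaded with human- or HCMV-proteome-derived peptides. A decrease means inhibition, an increase activation; NKG2A−/NKG2C− cells served as controls.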

[2] = biological target: T1, HLA-E (Homo sapiens, UniProt P13747); experiment: HLA-E surface stabilization assay with RMA-S/HLA-E cells; format: cell-based; details: 30 μM peptide, 16 hours, anti-HLA-E antibody
T1 construct: expressed in transfected cells; host or cells: RMA-S/HLA-E cells (antigen processing-defective lymphoma cell line)
Procedure: HLA-E surface expression was assessed by measuring geometric mean fluorescence intensity (GeoMFI) in RMA-S cells following immunofluorescence staining with an anti-HLA-E antibody (Table 14). Increased GeoMFI was indicative of increased HLA-E surface expression stability following novel peptide exposures (FIG. 3).

[3] = tested on: NKG2A−/NKG2C+ NK cells; experiment: NK cell activation markers in NKG2A-/NKG2C+ NK cells incubated with peptide and K562 expressing HLA-E (activation); format: cell-based, human; details: for percentage of CCL3+ NK cells / percentage of CD107+ NK cells / percentage of IFNG+ NK cells / percentage of TNF+ NK cells: NKG2A-/NKG2C+ NK cells, K562/HLA-E
Procedure, shortened: as §1

[4] = tested on: NKG2A−/NKG2C− NK cells; experiment: NK cell activation markers in control NKG2A-/NKG2C- NK cells incubated with peptide and K562 expressing HLA-E; format: cell-based, human
Procedure, shortened: as §1

[5] = K562 expressing HLA-E, CD107a, IFNG, TNF, CCL3

- HLA-E surface expression stability (GeoMFI) ([2]; Trial 1): 3152 GeoMFI
- HLA-E surface expression stability (GeoMFI) ([2]; Trial 2): 2914 GeoMFI
- HLA-E surface expression stability (GeoMFI) ([2]; Trial 3): 3432 GeoMFI
- HLA-E surface expression stability (GeoMFI) ([2]; Trial 4): 3610 GeoMFI
Sequence: VMPGRTLCF [human11, peptide TACR3 226-234 derived from the human proteome]
- effect on NKG2A+/NKG2C− NK cell inhibition (in words) [1, 5]: strong inhibitory
- percentage of CCL3+ NK cells ([1]; Trial 1): 4.05%
- percentage of CD107a+ NK cells ([1]; Trial 1): 0.35%
- percentage of IFNG+ NK cells ([1]; Trial 1): 0.13%
- percentage of TNF+ NK cells ([1]; Trial 1): 0.05%
- percentage of CCL3+ NK cells ([1]; Trial 2): 7.9%
- percentage of CD107a+ NK cells ([1]; Trial 2): 1.08%
- percentage of IFNG+ NK cells ([1]; Trial 2): 0.53%
- percentage of TNF+ NK cells ([1]; Trial 2): 0.21%
- percentage of CCL3+ NK cells ([1]; Trial 3): 3.93%
- percentage of CD107a+ NK cells ([1]; Trial 3): 1.25%
- percentage of IFNG+ NK cells ([1]; Trial 3): 0.6%
- percentage of TNF+ NK cells ([1]; Trial 3): 0.35%
- percentage of CCL3+ NK cells ([1]; Trial 4): 1.77%
- percentage of CD107a+ NK cells ([1]; Trial 4): 1.09%
- percentage of IFNG+ NK cells ([1]; Trial 4): 0.29%
- percentage of TNF+ NK cells ([1]; Trial 4): 0.23%
- percentage of CCL3+ NK cells ([1]; Trial 5): 2.68%
- percentage of CD107a+ NK cells ([1]; Trial 5): 0.66%
- percentage of IFNG+ NK cells ([1]; Trial 5): 0.09%
- percentage of TNF+ NK cells ([1]; Trial 5): 0%
- percentage of CCL3+ NK cells ([1]; Trial 6): 1.02%
- percentage of CD107a+ NK cells ([1]; Trial 6): 1.02%
- percentage of IFNG+ NK cells ([1]; Trial 6): 0.05%
- percentage of TNF+ NK cells ([1]; Trial 6): 0%
- effect on NKG2A−/NKG2C+ NK cell activation (in words) [3, 5]: strong activating effects
- percentage of CCL3+ NK cells ([3]; Trial 1): 72.1%
- percentage of CD107+ NK cells ([3]; Trial 1): 70.6%
- percentage of IFNG+ NK cells ([3]; Trial 1): 63.1%
- percentage of TNF+ NK cells ([3]; Trial 1): 57.2%
- percentage of CCL3+ NK cells ([3]; Trial 2): 83.5%
- percentage of CD107+ NK cells ([3]; Trial 2): 79.9%
- percentage of IFNG+ NK cells ([3]; Trial 2): 76.4%
- percentage of TNF+ NK cells ([3]; Trial 2): 71.3%
- percentage of CCL3+ NK cells ([3]; Trial 3): 80.8%
- percentage of CD107+ NK cells ([3]; Trial 3): 81%
- percentage of IFNG+ NK cells ([3]; Trial 3): 76.8%
- percentage of TNF+ NK cells ([3]; Trial 3): 72%
- percentage of CCL3+ NK cells ([3]; Trial 4): 65%
- percentage of CD107+ NK cells ([3]; Trial 4): 66.8%
- percentage of IFNG+ NK cells ([3]; Trial 4): 59.4%
- percentage of TNF+ NK cells ([3]; Trial 4): 53.6%
- percentage of CCL3+ NK cells ([3]; Trial 5): 69.8%
- percentage of CD107+ NK cells ([3]; Trial 5): 70.2%
- percentage of IFNG+ NK cells ([3]; Trial 5): 65%
- percentage of TNF+ NK cells ([3]; Trial 5): 62.5%
- percentage of CCL3+ NK cells ([3]; Trial 6): 39.9%
- percentage of CD107+ NK cells ([3]; Trial 6): 42.5%
- percentage of IFNG+ NK cells ([3]; Trial 6): 35.3%
- percentage of TNF+ NK cells ([3]; Trial 6): 33.5%
- percentage CCL3+ NK cells ([4]; Trial 1): 27.1%
- percentage CD107+ NK cells ([4]; Trial 1): 21.7%
- percentage TNF+ NK cells ([4]; Trial 1): 3.75%
- percentage of IFNG+ NK cells ([4]; Trial 1): 11.4%
- percentage CCL3+ NK cells ([4]; Trial 2): 49.5%
- percentage CD107+ NK cells ([4]; Trial 2): 28.7%
- percentage TNF+ NK cells ([4]; Trial 2): 7.72%
- percentage of IFNG+ NK cells ([4]; Trial 2): 21.3%
- percentage CCL3+ NK cells ([4]; Trial 3): 44.1%
- percentage CD107+ NK cells ([4]; Trial 3): 38.6%
- percentage TNF+ NK cells ([4]; Trial 3): 14.8%
- percentage of IFNG+ NK cells ([4]; Trial 3): 33.5%
- percentage CCL3+ NK cells ([4]; Trial 4): 30.9%
- percentage CD107+ NK cells ([4]; Trial 4): 28.9%
- percentage TNF+ NK cells ([4]; Trial 4): 9.48%
- percentage of IFNG+ NK cells ([4]; Trial 4): 18.5%
- percentage CCL3+ NK cells ([4]; Trial 5): 18.3%
- percentage CD107+ NK cells ([4]; Trial 5): 14.9%
- percentage TNF+ NK cells ([4]; Trial 5): 3.82%
- percentage of IFNG+ NK cells ([4]; Trial 5): 10.5%
- percentage CCL3+ NK cells ([4]; Trial 6): 13.7%
- percentage CD107+ NK cells ([4]; Trial 6): 14.8%
- percentage TNF+ NK cells ([4]; Trial 6): 2.69%
- percentage of IFNG+ NK cells ([4]; Trial 6): 6.09%
